Test results: patent publication US11246874B1, “Treatment of COVID-19” (Oxygen Biotech LLC, priority 2021, dated 2022)

Assays:
Format in all cases: cell-based
[1] = system: SARS-CoV-2 virus, strain S-007; assay: Infection of Vero cells with SARS-CoV-2; viral RNA (E-gene) in supernatant by 1-step RT-qPCR; details: bazedoxifene 10 μM in DMSO, 2 days of culture
Protocol: 0.15×10^6/ml Vero cells were infected with SARS-CoV-2 virus, an isolate from the environment, strain designated as S-007, provided by the Těchonin Biological Protection Department. Vero cells were then incubated in Dulbecco's Modified Eagle's Medium (DMEM) with 2% fetal bovine serum (FBS), DMSO 1 μl/ml, or in culture medium with bazedoxifene 10 […] in DMSO dosed from a starting stock solution of 10 mM bazedoxifene in DMSO, corresponding to a bazedoxifene concentration of […]. After 2 days of culture, the virus was quantified in the cell supernatant as follows.
Viral RNA was detected by 1-step RT-qPCR. Total RNA was isolated from 200 μl of supernatant of SARS-CoV-2 infected cells using magnetic beads. SARS-CoV-2 RNA was determined by amplifying the SARS-CoV-2 E-gene (Generi Biotech) using the SensiFast Probe One-Step Kit (BioLine) and Light Cycler 480 II (Roche). Viral RNA was quantified absolutely using a calibration curve.

[2] = system: SARS-CoV-2 virus (strain SARS-CoV-2/human/Czech Republic/951/2020); assay: Antiviral testing in Vero-E6 cells, virus titer by plaque titration; details: Vero-E6, 3.8 μg/μl, MOI 0.1, 48 h
Protocol: Confluent culture of Vero-E6 cells (ATCC CRL-1586) was used to test for antiviral activity. Cells were cultured in a 96-well microtiter plate (2×10^4 cells per well) for 24 h at 37° C. and 5% CO2. The culture medium was then aspirated and replaced with fresh medium containing the test substance in a concentration range of 0-3.8 μg/μl. At the same time, the cells were infected with the SARS-CoV-2 virus (strain SARS-CoV-2/human/Czech Republic/951/2020) at a multiplicity of infection of 0.1. The thus treated and infected cells were incubated for 48 h at 37° C. and 5% CO2. The medium was then aspirated from the culture wells and the virus titer was determined by plaque titration (Stefanik et al., Microorganisms 2021, 9 (3), 471; https://doi.org/10.3390/microorganisms9030471).
Results are depicted in FIG. 2.

[3] = system: Vero-E6 cells (ATCC CRL-1586); assay: Cytotoxicity in Vero-E6 cell culture (Cell Counting Kit-8); details: 48 h incubation, range 0-15.2 μg/μl
Protocol: The toxicity of the test substance was measured in a culture of Vero-E6 cells (ATCC CRL-1586). Cells were cultured in a 96-well microtiter plate (2×10^4 cells per well) for 24 h at 37° C. and 5% CO2. Then, the test substance was added to the cells in a concentration range of 0-15.2 μg/μ1, and the thus treated cells were subsequently incubated for another 48 h. The viability of the cells was then determined using the Cell Counting Kit-8 kit (Dojindo Molecular Technologies, Munich, Germany), exactly according to the manufacturer's instructions. Results are depicted in FIG. 1. The maximum non-toxic concentration of test substance in Vero-E6 cell culture was 3.8 μg/μl.

With bazedoxifene the “% of DMSO” value ([1]; E-gene copies) was 0.17%, the “Fold decrease compared to DMSO” value ([1]; E-gene copies) was 578.09 and the “E-gene No. of copies of the gene/ml” value ([1]; cell supernatant) was 5.39 × 10^7 copies of the gene/ml. For the same substance, the “decrease of titer in the treated group” value ([2]; versus control group) was “approximately 1 log10 pfu/ml”, the mean virus titer ([2]; control group 7.4 log10 pfu/ml) was 6.3 log10 pfu/ml and the maximum non-toxic concentration [3] was 3.8 µg/µL.
